In patent US20220372013A2, “PIPERIDINE-2,6-DIONE DERIVATIVES AND CROHN'S DISEASE TREATING” (Tianjin Hemay Pharmaceutical Sci-Tech Co., Ltd, priority 2016, published 2022):

Legend:
[1] = test system: DNBS-Induced Inflammatory Bowel Disease Models in Rats; experiment: Biological Example 1: DNBS-induced inflammatory bowel disease models in rats; assay type: in vivo, Wistar rats; details: for Adhesion Degree / Colon MPO Activity / Colon Weight / Colon weight to length ratio / Ulcer Area: sixth day, Mean ± SD
Protocol: Wistar rats, male, body weight of 100-120 g.
90 male Wistar rats were fasted for 40 hours. A 5% glucose injection was administered subcutaneously during fasting. 60 rats with normal conditions and moderate body weight were selected from the fasting rats. The animals were randomly divided into 6 groups according to the body weight: normal control group, model control group, sulfasalazine group (300 mg/Kg), and the compound in Example 27 groups consisting of 5, 15 and 30 mg/Kg dose groups. There were 10 rats in each group. The animals were anesthetized with ether. A specially made gavage device (made by a rat gavage device having the diameter of 2 mm, which was nested on a mouse gavage device having the diameter of 1 mm) was slowly inserted into the enteric cavity at 8 cm from the anus. The model control group, the sulfasalazine group and the compound in Example 27 groups were administered with 0.5 mL of 50 mg/mL DNBS in 30% ethanol solution. The normal control group was administered with 0.5 mL of 30% ethanol solution. The animals were inverted in anesthesia for 15 minutes after the gavage device was removed. The day when the model was prepared was the first day of the experiment. After 4 hours of DNBS induction, the corresponding drug or the corresponding volume of 1% CMC-Na was administered once per day. The body weights were recorded and the stool characteristics were scored. On the sixth day of the experiment colon tissues were taken from the animals to observe the results of each index.
The compound in Example 27 and sulfasalazine: Preparation Method: Suspended with 1% CMC-Na, and prepared when it was needed.
Animals were euthanized on the sixth day of the experiment to observe the results of each index. After the animals were sacrificed, colons were obtained. The adhesion degree of colon was observed and the length of the colon was measured. The ulcer area was calculated after removing the contents in the colon and the weight of the colon tissue was weighed. The colon tissue was longitudinally divided into two parts. One part of the colon tissue was fixed in 10% formalin solution for later use. The other part of the colon tissue was put into the liquid nitrogen to quickly frozen, and then was reserved at −80° C. for the detection of MPO.
Calculation method for ulcer area: length of ulcer point (cm)×width of ulcer point (cm).
The frozen tissue was ground into powder in liquid nitrogen. An appropriate amount of the powder was weighed and was added into 50 mM potassium phosphate solution (containing 0.5% cetyltrimethylammonium bromide) to give a 25 mg/mL solution. The resultant solution was homogenized by an electric homogenizer. 1 mL of suspension was centrifuged to give a supernatant. 7 μL of the supernatant was added into a 96-well plate and 200 μL of o-dianisidine mixture (containing 0.167 mg/mL o-dianisidine and 0.0006% H2O2 potassium phosphate buffer). OD values of the resultant solution at 0, 30, 60, and 90 s were detected at 450 nm of the microplate reader.
Test for homogeneity of variance was performed with Spss13.0. Where variance of data was homogeneous (P>0.05), one-way ANOVA LSD test was performed. Where the analysis of variance was significant (P<0.05), then Dunnett's multiple comparison (parameter method) or Kruskal-Wallis non-parametric test was performed. Where the results of Kruskal-Wallis non-parametric test were significant (P<0.05), the Mann-Whitney U test was performed for pairwise comparison.

[2] = test system: DNBS-Induced Inflammatory Bowel Disease Models in Rats; experiment: Biological Example 2: DNBS-induced inflammatory bowel disease models in rats; assay type: in vivo, Wistar rats
Protocol: 110 male Wistar rats were fasted for 40 hours. A 5% glucose injection (10 mL/Kg) was administered subcutaneously during fasting. 48 rats with normal conditions and moderate body weight were selected from the fasting rats. The animals were randomly divided into […] according to the body weight: normal control group, model control group, sulfasalazine group (300 mg/Kg), dexamethasone group (0.1 mg/Kg), the compound in Example 26 group (30 mg/kg) and the compound in Example 27 group (30 mg/kg), with 8 rats in each group. The animals were anesthetized with isoflurane. A specially made gavage device (made by a rat gavage device having the diameter of 2 mm, which was nested on a mouse gavage device having the diameter of 1 mm) was slowly inserted into the enteric cavity at 8 cm from the anus. The model control group, the compound in Example 26 group and the compound in Example 27 group were administered with 0.5 mL of 50 mg/mL DNBS in 30% ethanol solution. The normal control group was administered with 0.5 mL of 30% ethanol solution. The animals were inverted in anesthesia for 15 minutes after the gavage device was removed. The day when the model was prepared was the first day of the experiment. After 4 hours of DNBS induction, the corresponding drug or the corresponding volume of 1% CMC-Na was administered once per day. On the sixth day of the experiment, the animals were euthanized to observe the results of each index so as to score the colon adhesion degree, measure the length of colon and ulcer area, weigh colon and calculate the colon weight to length ratio.
The compound in Example 26 and Example 27, sulfasalazine and dexamethasone: Preparation Method: Suspended with 1% CMC-Na, and prepared when it was needed.
Levene's Test for homogeneity of data was performed with Spss. Where the data were homogeneous (P>0.05), one-way ANOVA LSD test was performed. Where the analysis of variance was significant (P≤0.05), Dunnett's multiple comparison (parameter method) was performed. Where the results of Levene's Test were significant (P≤0.05), Kruskal-Wallis nonparametric test was performed. Where the results of Kruskal-Wallis nonparametric test were significant (P≤0.05), Mann-Whitney U test was performed for pairwise comparison.

[3] = 30 mg/Kg i.g. qd × 6, sixth day, Mean ± SD

COCCN1C(=O)CCC(N2C(=O)c3cccc(N)c3C2=O)C1=O (centres unmarked) [Example 27, 4-amino-2-(1-(2-methoxyethyl)-2,6-dioxopiperidin-3-yl)isoindolin-1,3-dione]
Adhesion Degree ([1]; 5 mg/Kg i.g. qd × 6): 0.4 ± 0.7 Point
Colon MPO Activity ([1]; 5 mg/Kg i.g. qd × 6): 20.3 ± 19.8 U/mg
Colon Weight ([1]; 5 mg/Kg i.g. qd × 6): 1775.7 ± 321.0 mg
Colon weight to length ratio ([1]; 5 mg/Kg i.g. qd × 6): 144.2 ± 30.5 mg/cm
Ulcer Area ([1]; 5 mg/Kg i.g. qd × 6): 0.8 ± 0.9 cm^2
therapeutic effect (in words) ([1]; 5 mg/Kg, 15 mg/Kg and 30 mg/Kg): a certain dose effect and a good therapeutic effect without the weight loss of animals
Adhesion Degree ([1]; 15 mg/Kg i.g. qd × 6): 0.1 ± 0.3 Point
Colon MPO Activity ([1]; 15 mg/Kg i.g. qd × 6): 16.7 ± 9.8 U/mg
Colon Weight ([1]; 15 mg/Kg i.g. qd × 6): 1668.7 ± 245.3 mg
Colon weight to length ratio ([1]; 15 mg/Kg i.g. qd × 6): 127.1 ± 13.7 mg/cm
Ulcer Area ([1]; 15 mg/Kg i.g. qd × 6): 0.7 ± 0.9 cm^2
Adhesion Degree ([1]; 30 mg/Kg i.g. qd × 6): 0.1 ± 0.3 Point
Colon MPO Activity ([1]; 30 mg/Kg i.g. qd × 6): 15.1 ± 13.0 U/mg
Colon Weight ([1]; 30 mg/Kg i.g. qd × 6): 1534.7 ± 156.2 mg
Colon weight to length ratio ([1]; 30 mg/Kg i.g. qd × 6): 117.7 ± 19.4 mg/cm
Ulcer Area ([1]; 30 mg/Kg i.g. qd × 6): 0.3 ± 0.5 cm^2
reduction of the ulcer area ([1]; 30 mg/Kg, vs model control group): about 80%
Adhesion Degree [2, 3]: 0.9 ± 0.8 Points
Colon Length [2, 3]: 12.9 ± 2.3 cm
Colon Weight [2, 3]: 1737.9 ± 410.6 mg
Ulcer Area [2, 3]: 2.0 ± 1.9 cm^2
therapeutic effects on the model (in words) ([2]; 30 mg/kg i.g. qd × 6): good therapeutic effects
growth rate of the body weight (in words) ([2]; fourth day of the experiment, compared with model control group, doses as in Table 7): higher than that in the model control group
